In brackets after ≈: the same amount, converted by molar mass. Activity calls are given as the source filed them. The calls are words filed in the database; no cut-off is given here.
Assays:
Pseudomonas aeruginosa [1] = assay: Antimicrobial activity against Pseudomonas aeruginosa after 16 hr by serial dilution method; type: functional
Escherichia coli [2] = assay: Antimicrobial activity against Escherichia coli after 16 hr by serial dilution method; type: functional
Bacillus subtilis [3] = assay: Antimicrobial activity against Bacillus subtilis after 16 hr by serial dilution method; type: functional
Staphylococcus aureus [4] = assay: Antimicrobial activity against Staphylococcus aureus after 16 hr by serial dilution method; type: functional
Pseudomonas aeruginosa [5] = assay: Antimicrobial activity against Pseudomonas aeruginosa at 1.6125 to 50 ug/ml after 16 hr by serial dilution method; type: functional, organism-based
Escherichia coli [6] = assay: Antimicrobial activity against Escherichia coli at 1.6125 to 50 ug/ml after 16 hr by serial dilution method; type: functional, organism-based
Bacillus subtilis [7] = assay: Antimicrobial activity against Bacillus subtilis at 1.6125 to 50 ug/ml after 16 hr by serial dilution method; type: functional, organism-based
Staphylococcus aureus [8] = assay: Antimicrobial activity against Staphylococcus aureus at 1.6125 to 50 ug/ml after 16 hr by serial dilution method; type: functional, organism-based

## C=CCC(Nc1cccc2ncsc12)c1cn(C(C)=O)c2ccccc12 (configuration not stated)
Pseudomonas aeruginosa [1]
  MIC: 12.5 µg/mL (≈ 34.6 µM)
Escherichia coli [2]
  MIC: 12.5 µg/mL (≈ 34.6 µM)
Bacillus subtilis [3]
  MIC: 12.5 µg/mL (≈ 34.6 µM)
Staphylococcus aureus [4]
  MIC: 12.5 µg/mL (≈ 34.6 µM)

## C=CCC(Nc1ccc(Cl)cc1F)c1c(F)cccc1F (configuration not stated)
Pseudomonas aeruginosa [1]
  MIC: 1.61 µg/mL (≈ 5.17 µM)
Escherichia coli [2]
  MIC: 1.61 µg/mL (≈ 5.17 µM)
Bacillus subtilis [3]
  MIC: 1.61 µg/mL (≈ 5.17 µM)
Staphylococcus aureus [4]
  MIC: 3.12 µg/mL (≈ 10 µM)

## C=CCC(Nc1cccc(F)c1)c1cc(OC)ccc1F (configuration not stated)
Pseudomonas aeruginosa [1]
  MIC: 1.61 µg/mL (≈ 5.58 µM)
Escherichia coli [2]
  MIC: 1.61 µg/mL (≈ 5.58 µM)
Bacillus subtilis [3]
  MIC: 1.61 µg/mL (≈ 5.58 µM)
Staphylococcus aureus [4]
  MIC: 1.61 µg/mL (≈ 5.58 µM)

## C=CCC(Nc1ccc(C(C)(C)C)cc1)c1ccc(F)cc1F (configuration not stated)
Pseudomonas aeruginosa [1]
  MIC: 3.12 µg/mL (≈ 9.91 µM)
Escherichia coli [2]
  MIC: 3.12 µg/mL (≈ 9.91 µM)
Bacillus subtilis [3]
  MIC: 3.12 µg/mL (≈ 9.91 µM)
Staphylococcus aureus [4]
  MIC: 3.12 µg/mL (≈ 9.91 µM)

## C=CCC(Nc1cccc2ccccc12)c1ccccc1 (configuration not stated)
Pseudomonas aeruginosa [1]
  MIC: 25 µg/mL (≈ 91.4 µM)
Escherichia coli [2]
  MIC: 25 µg/mL (≈ 91.4 µM)
Bacillus subtilis [3]
  MIC: 25 µg/mL (≈ 91.4 µM)
Staphylococcus aureus [4]
  MIC: 25 µg/mL (≈ 91.4 µM)

## C=CCC(Nc1ccc(F)c(C(F)(F)F)c1)C1CC1 (configuration not stated)
Pseudomonas aeruginosa [5]
  Activity: inactive
Escherichia coli [6]
  Activity: inactive
Bacillus subtilis [3]
  MIC: 1.61 µg/mL (≈ 5.9 µM)
Staphylococcus aureus [4]
  MIC: 1.61 µg/mL (≈ 5.9 µM)

## CO/N=C(\C(=O)N[C@@H]1C(=O)N2C(C(=O)O)=C(CSc3nc(=O)c(O)nn3C)CS[C@H]12)c1csc(N)n1 [CEFTRIAXONE]
Pseudomonas aeruginosa [1]
  MIC: 1.61 µg/mL (≈ 2.91 µM)
Escherichia coli [2]
  MIC: 1.61 µg/mL (≈ 2.91 µM)
Bacillus subtilis [3]
  MIC: 1.61 µg/mL (≈ 2.91 µM)
Staphylococcus aureus [4]
  MIC: 3.12 µg/mL (≈ 5.63 µM)

## C=CCC(Nc1cc(C)ccc1C)C1CCCCC1 (configuration not stated)
Pseudomonas aeruginosa [1]
  MIC: 12.5 µg/mL (≈ 48.6 µM)
Escherichia coli [2]
  MIC: 12.5 µg/mL (≈ 48.6 µM)
Bacillus subtilis [3]
  MIC: 12.5 µg/mL (≈ 48.6 µM)
Staphylococcus aureus [4]
  MIC: 6.25 µg/mL (≈ 24.3 µM)

## C=CCC(Nc1ccc(C#N)cc1)c1ccsc1 (configuration not stated)
Pseudomonas aeruginosa [1]
  MIC: 6.25 µg/mL (≈ 24.6 µM)
Escherichia coli [2]
  MIC: 3.12 µg/mL (≈ 12.3 µM)
Bacillus subtilis [3]
  MIC: 6.25 µg/mL (≈ 24.6 µM)
Staphylococcus aureus [4]
  MIC: 6.25 µg/mL (≈ 24.6 µM)

## C=CCC(Nc1ccc(F)cc1F)c1ccc(F)cc1F (configuration not stated)
Pseudomonas aeruginosa [1]
  MIC: 1.61 µg/mL (≈ 5.46 µM)
Escherichia coli [2]
  MIC: 1.61 µg/mL (≈ 5.46 µM)
Bacillus subtilis [3]
  MIC: 1.61 µg/mL (≈ 5.46 µM)
Staphylococcus aureus [4]
  MIC: 1.61 µg/mL (≈ 5.46 µM)

## C=CCC(Nc1ccc(F)cc1)c1cccc(OCC)c1 (configuration not stated)
Pseudomonas aeruginosa [1]
  MIC: 3.12 µg/mL (≈ 11 µM)
Escherichia coli [2]
  MIC: 3.12 µg/mL (≈ 11 µM)
Bacillus subtilis [3]
  MIC: 3.12 µg/mL (≈ 11 µM)
Staphylococcus aureus [4]
  MIC: 3.12 µg/mL (≈ 11 µM)

## C=CCC(Nc1ccc(C(C)(C)C)cc1)C1CC1 (configuration not stated)
Pseudomonas aeruginosa [5]
  Activity: inactive
Escherichia coli [6]
  Activity: inactive
Bacillus subtilis [7]
  Activity: inactive
Staphylococcus aureus [8]
  Activity: inactive

## C=CCC(Nc1ccc(N2CCOCC2)cc1)C1CCCCC1 (configuration not stated)
Pseudomonas aeruginosa [1]
  MIC: 25 µg/mL (≈ 79.5 µM)
Escherichia coli [2]
  MIC: 6.25 µg/mL (≈ 19.9 µM)
Bacillus subtilis [3]
  MIC: 6.25 µg/mL (≈ 19.9 µM)
Staphylococcus aureus [4]
  MIC: 6.25 µg/mL (≈ 19.9 µM)

## C=CCC(Nc1ccc(Oc2ccc(Cl)cc2)cc1)c1ccc(-c2ccccc2Cl)o1 (configuration not stated)
Pseudomonas aeruginosa [1]
  MIC: 3.12 µg/mL (≈ 6.94 µM)
Escherichia coli [2]
  MIC: 3.12 µg/mL (≈ 6.94 µM)
Bacillus subtilis [3]
  MIC: 3.12 µg/mL (≈ 6.94 µM)
Staphylococcus aureus [4]
  MIC: 3.12 µg/mL (≈ 6.94 µM)

## C=CCC(Nc1cc(F)c(F)cc1F)c1ccc(F)cc1F (configuration not stated)
Pseudomonas aeruginosa [1]
  MIC: 1.61 µg/mL (≈ 5.15 µM)
Escherichia coli [2]
  MIC: 1.61 µg/mL (≈ 5.15 µM)
Bacillus subtilis [3]
  MIC: 1.61 µg/mL (≈ 5.15 µM)
Staphylococcus aureus [4]
  MIC: 1.61 µg/mL (≈ 5.15 µM)

## C=CCC(Nc1cccc2ccccc12)c1cc2ccccc2o1 (configuration not stated)
Pseudomonas aeruginosa [5]
  Activity: inactive
Escherichia coli [2]
  MIC: 25 µg/mL (≈ 79.8 µM)
Bacillus subtilis [3]
  MIC: 1.61 µg/mL (≈ 5.15 µM)
Staphylococcus aureus [4]
  MIC: 1.61 µg/mL (≈ 5.15 µM)

## C=CCOc1ccccc1C(CC=C)Nc1ccc(Oc2ccc(Cl)cc2)cc1 (configuration not stated)
Pseudomonas aeruginosa [1]
  MIC: 25 µg/mL (≈ 61.6 µM)
Escherichia coli [2]
  MIC: 6.25 µg/mL (≈ 15.4 µM)
Bacillus subtilis [3]
  MIC: 3.12 µg/mL (≈ 7.7 µM)
Staphylococcus aureus [4]
  MIC: 3.12 µg/mL (≈ 7.7 µM)

## C=CCC(NCc1ccc(F)c(F)c1)c1cc2ccccc2o1 (configuration not stated)
Pseudomonas aeruginosa [1]
  MIC: 3.12 µg/mL (≈ 9.97 µM)
Escherichia coli [2]
  MIC: 3.12 µg/mL (≈ 9.97 µM)
Bacillus subtilis [3]
  MIC: 3.12 µg/mL (≈ 9.97 µM)
Staphylococcus aureus [4]
  MIC: 1.61 µg/mL (≈ 5.15 µM)

From ChEMBL document CHEMBL3045399, “A novel series of homoallylic amines as potential antimicrobials” (2012)
